pIC50: −log10 of the molar value. The source made the active and inactive calls. The rule behind the calls is not given here.
Assays:
[1] = target: DNA topoisomerase 2-alpha (Homo sapiens) (UniProt P11388); test: Poison activity at human topoisomerase-2 assessed as linear DNA formation by measuring relaxation of supercoiled pBR322 plasmid DNA at 50 uM after 6 mins by agarose gel electrophoresis
K562 = test: Cytotoxicity against human K562 cells after 48 hrs by MTT assay; type: functional, cell-based; conditions: K562, 48 h
[2] = target: DNA topoisomerase 1 (Homo sapiens) (UniProt P11387); test: Inhibition of human topoisomerase-1 assessed as DNA intercalation by measuring relaxation of supercoiled pBR322 plasmid DNA after 6 mins by agarose gel electrophoresis
HL-60 = test: Cytotoxicity against human HL60 cells after 48 hrs by MTT assay; type: functional, cell-based; conditions: HL-60, 48 h
A549 = test: Cytotoxicity against human A549 cells after 48 hrs by MTT assay; type: functional, cell-based; conditions: A549, 48 h
HeLa = test: Cytotoxicity against human HeLa cells after 48 hrs by MTT assay; type: functional, cell-based
[3] = target: T1, Topoisomerase I (Bos taurus) (UniProt Q2HPH0); test: Inhibition of calf thymus topoisomerase-1 assessed as reduction in relaxation of pBR322 plasmid DNA at 100 uM measured after 30 mins by agarose gel electrophoresis
T1 sequence (whole entry): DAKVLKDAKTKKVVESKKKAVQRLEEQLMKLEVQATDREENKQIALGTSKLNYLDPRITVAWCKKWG

[4] = target: DNA topoisomerase 2-alpha (Homo sapiens) (UniProt P11388); test: Inhibition of human topoisomerase-2 assessed as reduction in relaxation of pBR322 plasmid DNA at 20 uM measured after 30 mins by agarose gel electrophoresis
[5] = target: DNA topoisomerase 2-alpha (Homo sapiens) (UniProt P11388); test: Inhibition of human topoisomerase-2 assessed as DNA intercalation by measuring relaxation of supercoiled pBR322 plasmid DNA at 0.3 to 2.5 uM after 6 mins by agarose gel electrophoresis
[6] = target: DNA topoisomerase 2-alpha (Homo sapiens) (UniProt P11388); test: Inhibition of human topoisomerase-2 assessed as reduction in relaxation of pBR322 plasmid DNA at 10 uM measured after 30 mins by agarose gel electrophoresis

DNA topoisomerase 2-alpha (Homo sapiens), sequence (P11388 whole entry): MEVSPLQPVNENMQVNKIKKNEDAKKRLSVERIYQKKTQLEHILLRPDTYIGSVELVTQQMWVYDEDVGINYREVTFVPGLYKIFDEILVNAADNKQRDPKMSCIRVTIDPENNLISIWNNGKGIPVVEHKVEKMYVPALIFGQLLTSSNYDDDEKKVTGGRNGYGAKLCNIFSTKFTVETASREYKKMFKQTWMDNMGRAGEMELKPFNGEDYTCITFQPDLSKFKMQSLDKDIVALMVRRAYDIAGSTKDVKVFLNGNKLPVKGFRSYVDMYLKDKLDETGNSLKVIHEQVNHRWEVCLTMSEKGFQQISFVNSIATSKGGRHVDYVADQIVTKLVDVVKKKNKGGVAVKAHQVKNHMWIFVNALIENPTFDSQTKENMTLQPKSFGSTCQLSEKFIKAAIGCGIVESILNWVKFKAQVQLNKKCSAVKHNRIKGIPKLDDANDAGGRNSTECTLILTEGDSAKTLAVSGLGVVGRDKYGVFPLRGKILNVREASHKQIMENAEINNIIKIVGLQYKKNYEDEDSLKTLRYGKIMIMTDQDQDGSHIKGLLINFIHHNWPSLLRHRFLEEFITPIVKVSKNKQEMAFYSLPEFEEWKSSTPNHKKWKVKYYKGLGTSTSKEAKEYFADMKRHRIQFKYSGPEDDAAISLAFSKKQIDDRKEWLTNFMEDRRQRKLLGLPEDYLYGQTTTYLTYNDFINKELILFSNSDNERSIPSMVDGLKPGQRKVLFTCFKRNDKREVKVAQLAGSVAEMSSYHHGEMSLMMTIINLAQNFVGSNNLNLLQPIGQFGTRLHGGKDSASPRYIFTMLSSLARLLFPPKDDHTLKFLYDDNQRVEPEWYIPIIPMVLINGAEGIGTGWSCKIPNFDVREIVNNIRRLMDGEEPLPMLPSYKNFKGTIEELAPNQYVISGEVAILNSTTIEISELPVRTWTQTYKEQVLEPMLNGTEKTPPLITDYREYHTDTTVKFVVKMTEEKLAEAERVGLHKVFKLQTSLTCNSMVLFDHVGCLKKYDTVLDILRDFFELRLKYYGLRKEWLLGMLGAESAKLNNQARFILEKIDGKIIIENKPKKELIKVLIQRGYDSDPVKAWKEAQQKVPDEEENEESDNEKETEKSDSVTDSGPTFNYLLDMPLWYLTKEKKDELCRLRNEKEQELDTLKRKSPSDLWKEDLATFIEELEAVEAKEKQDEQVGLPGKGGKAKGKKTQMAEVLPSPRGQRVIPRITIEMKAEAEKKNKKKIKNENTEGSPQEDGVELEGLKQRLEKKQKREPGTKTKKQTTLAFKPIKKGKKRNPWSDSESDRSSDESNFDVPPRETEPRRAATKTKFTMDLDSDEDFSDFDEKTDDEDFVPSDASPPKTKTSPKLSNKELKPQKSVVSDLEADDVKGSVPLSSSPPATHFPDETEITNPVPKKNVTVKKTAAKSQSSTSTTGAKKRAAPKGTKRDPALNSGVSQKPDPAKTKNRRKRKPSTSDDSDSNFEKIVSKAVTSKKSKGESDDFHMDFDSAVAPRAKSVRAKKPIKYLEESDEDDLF
DNA topoisomerase 1 (Homo sapiens), sequence (P11387 whole entry, looked up): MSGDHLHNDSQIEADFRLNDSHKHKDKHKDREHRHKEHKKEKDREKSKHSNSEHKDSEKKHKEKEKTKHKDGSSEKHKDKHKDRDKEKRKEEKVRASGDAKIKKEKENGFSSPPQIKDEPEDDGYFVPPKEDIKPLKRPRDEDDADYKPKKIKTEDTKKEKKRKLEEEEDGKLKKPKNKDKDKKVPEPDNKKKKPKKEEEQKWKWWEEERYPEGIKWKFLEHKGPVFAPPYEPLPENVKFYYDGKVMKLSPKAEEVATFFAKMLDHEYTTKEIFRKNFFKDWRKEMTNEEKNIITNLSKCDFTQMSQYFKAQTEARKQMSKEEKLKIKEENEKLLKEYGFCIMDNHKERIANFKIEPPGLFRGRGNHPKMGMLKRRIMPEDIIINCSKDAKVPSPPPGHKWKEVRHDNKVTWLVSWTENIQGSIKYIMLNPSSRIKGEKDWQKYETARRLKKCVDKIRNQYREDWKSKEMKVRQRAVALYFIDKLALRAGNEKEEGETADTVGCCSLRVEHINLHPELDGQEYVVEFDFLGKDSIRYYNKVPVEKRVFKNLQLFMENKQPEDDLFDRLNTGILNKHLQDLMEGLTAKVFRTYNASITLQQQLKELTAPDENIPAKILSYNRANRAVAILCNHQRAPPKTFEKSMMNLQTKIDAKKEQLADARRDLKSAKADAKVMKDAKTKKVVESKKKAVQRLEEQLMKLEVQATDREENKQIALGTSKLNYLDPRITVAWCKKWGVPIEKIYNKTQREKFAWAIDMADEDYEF

Compound | Activity [1] | pIC50 (K562) | inhibition [2] | pIC50 (HL-60) | pIC50 (A549) | pIC50 (HeLa) | inhibition [3] | inhibition [4] | inhibition [5] | inhibition [6]
N#Cc1ccc(Cn2c3ccccc3c3cc(/C=C4\SC(=S)N(CC(=O)O)C4=O)ccc32)cc1 | inactive | 5.73 | Dose-dependent effect | 6.37 | 5.66 | 5.30 | inactive | Active |  | 
CC[C@@]1(O)C(=O)OCc2c1cc1n(c2=O)Cc2cc3ccccc3nc2-1 |  |  |  |  |  |  | Active |  |  | 
O=C(O)CN1C(=O)/C(=C/c2ccc3c(c2)c2ccccc2n3Cc2ccc(C(F)(F)F)cc2)SC1=S | inactive | 5.67 | Dose-dependent effect | 6.15 | 5.47 | 5.09 | inactive | Active |  | 
O=C(O)CN1C(=O)/C(=C/c2ccc3c(c2)c2ccccc2n3Cc2ccc(F)cc2)SC1=S |  | 4.72 |  | 5.07 | < 4.30 | < 4.30 | inactive | Active |  | 
O=C(O)CN1C(=O)/C(=C/c2ccc3c(c2)c2ccccc2n3Cc2ccc(Br)cc2)SC1=S |  | 4.55 |  | 4.90 | < 4.30 | < 4.30 | inactive | inactive |  | 
CC[n+]1c(-c2ccccc2)c2cc(N)ccc2c2ccc(N)cc21 |  |  |  |  |  |  |  |  | Active | 
Cc1ccc(Cn2c3ccccc3c3cc(/C=C4\SC(=S)N(CC(=O)O)C4=O)ccc32)cc1 |  | 4.53 |  | 4.75 | < 4.30 | < 4.30 | inactive | inactive |  | 
O=C(O)CN1C(=O)/C(=C/c2ccc3c(c2)c2ccccc2n3Cc2ccccc2)SC1=S |  | 4.67 |  | 4.84 | 4.49 | < 4.30 | inactive | inactive |  | 
O=C(O)CN1C(=O)/C(=C/c2ccc3c(c2)c2ccccc2n3Cc2ccc(Br)cc2F)SC1=S |  | 5.16 |  | 5.45 | 5.03 | 4.93 | inactive | Active |  | 
O=C(O)CN1C(=O)/C(=C/c2ccc3c(c2)c2ccccc2n3Cc2ccc(F)c(F)c2)SC1=S |  | 5.14 |  | 5.38 | 4.91 | 4.82 | inactive | Active |  | 
O=C(O)CN1C(=O)/C(=C/c2ccc3c(c2)c2ccccc2n3Cc2ccc(F)cc2F)SC1=S |  | 4.90 |  | 5.42 | 4.65 | < 4.30 | inactive | inactive |  | 
O=C(O)CN1C(=O)/C(=C/c2ccc3c(c2)c2ccccc2n3Cc2cccc(F)c2)SC1=S |  | 4.89 |  | 5.08 | 4.70 | < 4.30 | inactive | inactive |  | 
COc1cc([C@@H]2c3cc4c(cc3[C@@H](O[C@@H]3O[C@@H]5CO[C@@H](C)O[C@H]5[C@H](O)[C@H]3O)[C@H]3COC(=O)[C@H]23)OCO4)cc(OC)c1O [ETOPOSIDE] |  |  |  |  |  | 4.49 |  | Active |  | 
O=C(O)CN1C(=O)/C(=C/c2ccc3c(c2)c2ccccc2n3Cc2ccc([N+](=O)[O-])cc2)SC1=S |  | 5.57 |  | 6.02 | 5.40 | 5.12 | inactive | Active |  | Active
O=C(O)CN1C(=O)/C(=C/c2ccc3c(c2)c2ccccc2n3Cc2ccc(Cl)cc2)SC1=S |  | 4.87 |  | 5.31 | 4.79 | 4.55 | inactive | inactive |  | 
O=C(O)CN1C(=O)/C(=C/c2ccc3c(c2)c2ccccc2n3Cc2ccccc2F)SC1=S |  | 4.93 |  | 5.74 | 4.87 | 4.67 | inactive | inactive |  | 
